Source: ChEMBL document CHEMBL4312002, “Impact of hydroxy moieties at the benzo[7]annulene ring system of GluN2B ligands: Design, synthesis and biological evaluation” (Bioorg Med Chem, 2019)

Legend:
Sus scrofa = organism: Sus scrofa; test: Displacement of [3H]-(+)-MK-801 from PCP binding site of NMDA receptor in pig brain cortex membranes at 1 uM after 120 mins by solid scintillation counting method relative to control; type: cell membranes
[1] = biological target: T1, Sigma intracellular receptor 2 (Rattus norvegicus, UniProt Q5U3Y7); test: Displacement of [3H]di-o-tolylguanidine from sigma2 receptor in rat liver membranes measured after 120 mins by solid scintillation counting method; type: cell membranes
T1 sequence (Q5U3Y7 whole entry): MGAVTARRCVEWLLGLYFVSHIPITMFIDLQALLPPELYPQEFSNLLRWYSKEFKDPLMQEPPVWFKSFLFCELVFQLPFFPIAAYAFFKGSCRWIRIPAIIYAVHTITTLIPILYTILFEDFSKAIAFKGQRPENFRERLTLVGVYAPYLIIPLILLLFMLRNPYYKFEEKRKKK

[2] = Cytoprotection against glutamate/glycine-induced cytotoxicity against mouse LTK cells expressing GluN1a/GluN2B at 10 uM measured after 30 mins by LDH assay relative to control; type: functional
[3] = Displacement of [3H]ifenprodil from GluN1A/GluN2B (unknown origin) expressed in mouse L(tk-) cell membranes after 120 mins by solid scintillation counting method; parameters: species or system Homo sapiens
[4] = biological target: Sigma non-opioid intracellular receptor 1 (Cavia porcellus, UniProt Q60492); test: Displacement of [3H]-(+)-pentazocine from sigma1 receptor in guinea pig brain cortex membranes incubated for 120 mins by solid scintillation counting method; type: cell membranes
[5] = Retention time of (2S,3S,4S,5R)-3,4,5-trihydroxy-6-(7-(methyl(3-phenylpropyl)amino)-6,7,8,9-tetrahydro-5H-benzo[7]annulen-5-yloxy)tetrahydro-2H-pyran-2-carboxylic acid metabolite in C57BL/6 mouse liver microsomes at 25 uM by LC-qTOF/MS analysis; type: ADME, Microsome
[6] = Cytoprotection against glutamate/glycine-induced cytotoxicity against mouse LTK cells expressing GluN1a/GluN2B assessed as inhibition of cell growth measured after 12 hrs by LDH assay; type: functional, cell-based
[7] = Drug metabolism in C57BL/6 mouse liver microsomes assessed as (2S,3S,4S,5R)-3,4,5-trihydroxy-6-(7-(methyl(3-phenylpropyl)amino)-6,7,8,9-tetrahydro-5H-benzo[7]annulen-5-yloxy)tetrahydro-2H-pyran-2-carboxylic acid formation at 25 uM incubated for 90 mins in presence of phase 1 and 2 cofactors NADPH and UDPGA by LC-qTOF/MS analysis; type: ADME, Microsome; conditions: 1.5 h
in vitro = conditions: C57BL/6, mouse, liver microsomes
Description: Metabolic stability in C57BL/6 mouse liver microsomes assessed as parent compound remaining at 25 uM incubated for 90 mins in presence of NADPH by LC-qTOF/MS analysis

[8] = Retention time of compound in C57BL/6 mouse liver microsomes at 25 uM by LC-qTOF/MS analysis; type: ADME, Microsome
[9] = Drug metabolism in C57BL/6 mouse liver microsomes assessed as glucuronide metabolite formation at 25 uM incubated for 90 mins in presence of phase 1 and 2 cofactors NADPH and UDPGA by LC-qTOF/MS analysis; type: ADME, Microsome; conditions: 1.5 h
[10] = Drug metabolism in C57BL/6 mouse liver microsomes assessed as hydroxylation at aliphatic and aromatic ring at 25 uM incubated for 90 mins in presence of phase 1 cofactor NADPH by LC-qTOF/MS analysis; type: ADME, Microsome; conditions: 1.5 h
[11] = Drug metabolism in C57BL/6 mouse liver microsomes assessed as hydroxylation at aliphatic ring at 25 uM incubated for 90 mins in presence of phase 1 cofactor NADPH by LC-qTOF/MS analysis; type: ADME, Microsome; conditions: 1.5 h
[12] = Drug metabolism in C57BL/6 mouse liver microsomes assessed as hydroxylation at aromatic ring at 25 uM incubated for 90 mins in presence of phase 1 cofactor NADPH by LC-qTOF/MS analysis; type: ADME, Microsome; conditions: 1.5 h
[13] = Cytoprotection against glutamate/glycine-induced cytotoxicity against mouse LTK cells expressing GluN1a/GluN2B preincubated 30 mins followed by glutamate/glycine addition and measured after 6 hrs by LDH assay; type: functional, cell-based
[14] = biological target: Sigma non-opioid intracellular receptor 1 (Cavia porcellus) (UniProt Q60492); test: Displacement of [3H]-(+)-pentazocine from sigma1 receptor in guinea pig brain cortex membranes at 1 uM incubated for 120 mins by solid scintillation counting method relative to control; type: cell membranes
Chain of Sigma non-opioid intracellular receptor 1 (Cavia porcellus) (Q60492 whole entry): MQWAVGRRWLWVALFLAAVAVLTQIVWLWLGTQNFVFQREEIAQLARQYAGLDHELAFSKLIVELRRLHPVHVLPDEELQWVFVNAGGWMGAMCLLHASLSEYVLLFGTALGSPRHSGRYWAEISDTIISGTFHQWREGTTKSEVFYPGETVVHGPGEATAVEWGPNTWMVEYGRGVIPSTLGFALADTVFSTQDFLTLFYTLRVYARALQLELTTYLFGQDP

Chain of Sigma non-opioid intracellular receptor 1 (Q60492 whole entry): as above

SMILES	inhibition (Sus scrofa)	Ki [1]	Activity [2]	Ki [3]	Ki [4]	IC50 [13]	other results
CN(CCCCc1ccccc1)C1CCc2ccccc2C(O)C1 (mixture of isomers)	0%	66 nM	10%	64 nM	33 nM	–	–
CN(CCCc1ccccc1)C1CCc2ccccc2C(O[C@@H]2O[C@H](C(=O)O)[C@@H](O)[C@H](O)[C@H]2O)C1 (stereo partly specified)	–	–	–	–	–	–	Retention_time [5]: 4.8 min
COc1ccc2c(c1)CCC(NCCCc1ccccc1)CC2 (stereo unspecified)	–	–	–	10 nM	–	–	IC50 [6]: 29 nM
CN(CCCc1ccccc1)C1CCc2ccccc2C(O)C1 (mixture of isomers)	0%	35 nM	–	49 nM	39 nM	580 nM	Drug metabolism [7]: Metabolite_Detected; remaining at 1.5 h, 25 µM (in vitro): 17%; Retention_time [8]: 5.1 min; Drug metabolism [9]: Metabolite_Detected; Drug metabolism [10]: Metabolite_Detected; Drug metabolism [11]: Metabolite_Detected; Drug metabolism [12]: Metabolite_Detected
Oc1ccc2c(c1)CCC(NCCCCc1ccccc1)CC2 (stereo unspecified)	–	–	–	21 nM	–	3000 nM	–
OC1CC(NCCCCc2ccccc2)CCc2ccccc21 (mixture of isomers)	0%	100 nM	12%	–	140 nM	–	–
C[C@@H](CN1CCC(Cc2ccccc2)CC1)[C@@H](O)c1ccc(O)cc1	–	–	–	170 nM	–	13 nM	–
OC1c2ccccc2CCC(NCCCc2ccccc2)C1O (mixture of isomers)	14%	630 nM	41%	2000 nM	–	–	inhibition [14]: 17%
COc1ccc2c(c1)CC[C@@H](NCCCc1ccccc1)C[C@H]2O (racemic)	–	–	–	16 nM	–	–	IC50 [6]: 12 nM
OC1CC(NCCCc2ccccc2)CCc2ccccc21 (mixture of isomers)	0%	28 nM	–	77 nM	160 nM	1600 nM	–
OC(CN1CCC(Cc2ccc(F)cc2)CC1)c1ccc(Cl)cc1 (stereo unspecified) [ELIPRODIL]	–	–	–	13 nM	–	–	–
OC1Cc2ccccc2CCC1NCCCc1ccccc1 (mixture of isomers)	0%	100 nM	22%	380 nM	1300 nM	–	–
c1ccc(CCCNC2CCc3ccccc3CC2)cc1	–	–	29%	16 nM	–	–	–
CC(C(O)c1ccc(O)cc1)N1CCC(Cc2ccccc2)CC1 (stereo unspecified) [IFENPRODIL]	–	–	–	10 nM	–	–	–
Oc1ccc2c(c1)CCC(NCCCc1ccccc1)CC2 (stereo unspecified)	–	–	–	28 nM	–	> 10000 nM	–
OC1Cc2ccccc2CCC1NCCCCc1ccccc1 (mixture of isomers)	0%	100 nM	0%	270 nM	430 nM	–	–
